IC50 and DC50 data for 17 molecules are collected here from US20260167623A1 (NIKANG THERAPEUTICS, INC., priority 2022, published 2026).

Experiment [1] addresses T1, CDK2 (Homo sapiens, UniProt P24941).
T1 construct: High-Throughput Measurement of Cellular Endogenous CDK2; endogenous in cells; host or cells: OVCAR3
The experiment can be described thus: Inhibition of CDK2: phospho-Rb (S807/811) HTRF measurement in OVCAR3 cells, 24 h. The following applies: 24 h compound treatment, read-out: pRB_OVCAR3_24h. Format: cell-based. In outline: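 OVCAR3 cells, seeded overnight, were exposed to compounds at 0.3 to 10,000 nM for 24 h, then lysed. Rb S807/811 phosphorylation read by HTRF (665/620 nm ratio) after 4 h detection at room temperature; data normalized to DMSO and IC50 from four-parameter logistic fit.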
A general note: In TR-FRET formats the signal depends on donor and acceptor labels being close together.

The target of experiment [2] is T1, CDK2. Nature of the experiment: High-throughput HTRF measurement of cellular endogenous CDK2 level (degradation, DC50/Dmax) in OVCAR3 cells, 6 h. The settings on record: 6 h compound treatment, HTRF total CDK2, read-out: DC50_OVCAR3_6h. Format: cell-based. As to the method: High-Throughput Measurement of Cellular Endogenous CDK2
Effects of compounds on cellular CDK2 level were monitored by a high-throughput HTRF assay.
To determine half maximal degradation concentration (DC50) and maximum degradation level (Dmax) values of compounds, cellular CDK2 level was measured in 96-well format using HTRF total CDK2 cellular kit (Cat #64CDK2TPEG) from Cisbio.
On Day 1, OVCAR3 cells were seeded into 96-well tissue-culture treated plates at 20,000 cells/well in 200 μL and incubated overnight at 37° C. in CO2 atmosphere. On Day 2 cells were treated with compounds at concentration ranging from 0.03 to 1,000 nM using HP D300 digital dispenser. 6 hours after compound treatment, cell culture media was removed by flicking the plate and tapping the plate against clean paper towel. Immediately 30 μL 1× lysis buffer was supplemented from the kit and added to each well and the plate is incubated at room temperature on shaker for 30 min. After homogenization by pipetting up and down, 8 μL cell lysate from 96-well cell culture plate was transferred to 384-well small volume white detection plate. 2 μL premixed detection solution was added and the plate is covered with sealer. To prepare the detection solution, d2 conjugated-CDK2 antibody and Eu-cryptate conjugated CDK2 antibody were diluted into detection buffer following manufacturer's instruction. Detection plates were incubated overnight at room temperature and read on ClarioStar (BMG Labtech) in TR-FRET mode (665 nM and 620 nM). The TR-FRET ratio (665 nM/620 nM) was plotted against the compound concentration and normalized to DMSO controls (0% degradation) and lysis buffer controls (100% degradation). Half maximal degradation concentration (DC 50) […] were calculated with a four-parameter logistic fit using GraphPad Prism (version 8; La Jolla, CA).
In the table below, AA indicates a DC50 of greater than or equal to 0.5 nM but less than 1 nM; A indicates a DC50 of greater than or equal to 1 nM but less than or equal to 10 nM; B indicates a DC50 of greater than 10 nM but less than or equal to 100 nM; C indicates a DC50 of greater than 100 nM but less than or equal to 1 μM; and D indicates a DC50 of greater than 1 μM […] but less than or equal to 5 μM. NT means not tested.

Molecules are shown by their SMILES.

`Cn1nc(N2CCC(=O)NC2=O)c2ccc(C3CCN(CC4CCN(c5cccc(S(=O)(=O)N6CC[C@H](Nc7ncc(Cl)cn7)[C@H](F)C6)c5)CC4)CC3)cc21` (racemic) [Example 202, Rac-1-(6-(1-((1-(3-(((3R,4S)-4-((5-chloropyrimidin-2-yl)amino)-3-fluoropiperidin-1-yl)sulfonyl)phenyl)piperidin-4-yl)methyl)piperidin-4-yl)-1-methyl-1H-indazol-3-yl)dihydropyrimidine-2,4(1H,3H)-dione]: at CDK2 [1], the IC50 was 1 to 100 nM. For the same molecule, at CDK2 [2], the DC50 is 1 to 10 nM.
As to `Cn1nc(N2CCC(=O)NC2=O)c2ccc(C3CCN(CC4CCN(c5cccc(S(=O)(=O)N6CC[C@H](Nc7ncc(C(F)(F)F)cn7)[C@H](F)C6)c5)CC4)CC3)cc21` (racemic) [Example 223, Rac-1-(6-(1-((1-(3-(((3R,4S)-3-fluoro-4-((5-(trifluoromethyl)pyrimidin-2-yl)amino)piperidin-1-yl)sulfonyl)phenyl)piperidin-4-yl)methyl)piperidin-4-yl)-1-methyl-1H-indazol-3-yl)dihydropyrimidine-2,4(1H,3H)-dione], the IC50 on CDK2 [1] fell in the range of 1 to 100 nM. The DC50 at CDK2 [2] lay in the range of 1 to 10 nM.
As for `Cn1nc(N2CCC(=O)NC2=O)c2ccc(C3CCN(Cc4cccc(S(=O)(=O)N5CCC(Nc6ncc(C(F)(F)F)cn6)CC5)c4)CC3)cc21` [Example 1], the IC50 at CDK2 [1] is 1 to 100 nM. For the same molecule, the DC50 on CDK2 [2] lay within 1 to 10 nM.
The like results for `Cn1nc(N2CCC(=O)NC2=O)c2ccc(C3CCN(Cc4cccc(S(=O)(=O)N5CCC(Nc6ncc(C(F)(F)F)cn6)CC5)c4)CC3)c(F)c21` [Example 2, 1-(7-fluoro-1-methyl-6-(1-(3-((4-((5-(trifluoromethyl)pyrimidin-2-yl)amino)piperidin-1-yl)sulfonyl)benzyl)-piperidin-4-yl)-1H-indazol-3-yl)dihydropyrimidine-2,4(1H,3H)-dione] were, in that order, 1 to 100 nM and 10 to 100 nM.
The corresponding values for `Cn1nc(N2CCC(=O)NC2=O)c2ccc(C3CCN(CCc4cccc(S(=O)(=O)N5CCC(Nc6ncc(C(F)(F)F)cn6)CC5)c4)CC3)cc21` [Example 6, 1-(1-methyl-6-(1-(3-((4-((5-(trifluoromethyl)pyrimidin-2-yl)amino)-piperidin-1-yl)sulfonyl)phenethyl)piperidin-4-yl)-1H-indazol-3-yl)dihydropyrimidine-2,4(1H,3H)-dione] are 1 to 100 nM and 100 to 1000 nM.
The corresponding values for `Cc1ncsc1-c1ccc([C@H](C)NC(=O)[C@@H]2C[C@@H](O)CN2C(=O)[C@H](NC(=O)C2CCN(Cc3cccc(S(=O)(=O)N4CCC(Nc5ncc(C(F)(F)F)cn5)CC4)c3)CC2)C(C)(C)C)cc1` [Example 7, N-((R)-1-((2S,4R)-4-hydroxy-2-(((S)-1-(4-(4-methylthiazol-5-yl)phenyl)ethyl)-carbamoyl)pyrrolidin-1-yl)-3,3-dimethyl-1-oxobutan-2-yl)-1-(3-((4-((5-(trifluoro-methyl)pyrimidin-2-yl)amino)piperidin-1-yl)sulfonyl)benzyl) piperidine-4-carboxamide] are 100 to 500 nM and 100 to 1000 nM.
In the case of `Cc1ncsc1-c1ccc([C@H](C)NC(=O)[C@@H]2C[C@@H](O)CN2C(=O)[C@@H](NC(=O)C2(F)CC2)C(C)(C)SCC2CCN(Cc3cccc(S(=O)(=O)N4CCC(Nc5ncc(C(F)(F)F)cn5)CC4)c3)CC2)cc1` [Example 8, (2S,4R)-1-((R)-2-(1-fluorocyclopropane-1-carboxamido)-3-methyl-3-(((1-(3-((4-((5-(trifluoromethyl)pyrimidin-2-yl)amino)-piperidin-1-yl)sulfonyl)benzyl)piperidin-4-yl)methyl)thio)butanoyl)-4-hydroxy-N-((S)-1-(4-(4-methylthiazol-5-yl)phenyl)-ethyl)pyrrolidine-2-carboxamide], the IC50 at CDK2 [1] lay within 100 to 500 nM. At CDK2 [2], the DC50 fell in the range of 1 to 10 nM.
The like results for `Cn1nc(N2CCC(=O)NC2=O)c2ccc(C3CCN(Cc4cccc(S(=O)(=O)N5CCC(Nc6ncc(Cl)cn6)CC5)c4)CC3)cc21` [Example 11, 1-(6-(1-(3-((4-((5-chloropyrimidin-2-yl)amino)piperidin-1-yl)sulfonyl)benzyl)-piperidin-4-yl)-1-methyl-1H-indazol-3-yl)dihydropyrimidine-2,4(1H,3H)-dione] were, in that order, 100 to 500 nM and 1 to 10 nM.
Consider `Cn1nc(N2CCC(=O)NC2=O)c2cc(F)c(C3CCN(Cc4cccc(S(=O)(=O)N5CCC(Nc6ncc(C(F)(F)F)cn6)CC5)c4)CC3)cc21` [Example 16, 1-(5-fluoro-1-methyl-6-(1-(3-((4-((5-(trifluoromethyl)pyrimidin-2-yl)amino)-piperidin-1-yl)sulfonyl)benzyl)piperidin-4-yl)-1H-indazol-3-yl)dihydropyrimidine-2,4(1H,3H)-dione], for which the IC50 on CDK2 [1] fell in the range of 1 to 100 nM. The DC50 at CDK2 [2] fell in the range of 10 to 100 nM.
The like results for `Cn1nc(N2CCC(=O)NC2=O)c2cc(F)c(C3CCN(Cc4cccc(S(=O)(=O)N5CCC(Nc6ncc(Cl)cn6)CC5)c4)CC3)cc21` [Example 23, 1-(6-(1-(3-((4-((5-chloropyrimidin-2-yl)amino)piperidin-1-yl)sulfonyl)benzyl)-piperidin-4-yl)-5-fluoro-1-methyl-1H-indazol-3-yl)dihydropyrimidine-2,4(1H,3H)-dione] were, in that order, 100 to 500 nM and 10 to 100 nM.
The corresponding values for `Cn1nc(N2CCC(=O)NC2=O)c2ccc(C3CCN(Cc4cccc(S(=O)(=O)N5CCC(Nc6ncc(Br)cn6)CC5)c4)CC3)cc21` [Example 24, 1-(6-(1-(3-((4-((5-bromopyrimidin-2-yl)amino)piperidin-1-yl)sulfonyl)benzyl)-piperidin-4-yl)-1-methyl-1H-indazol-3-yl)dihydropyrimidine-2,4(1H,3H)-dione] are 100 to 500 nM and 1 to 10 nM.
The like results for `Cn1nc(N2CCC(=O)NC2=O)c2ccc(C3CCN(Cc4cccc(S(=O)(=O)N5CC[C@H](Nc6ncc(Cl)cn6)[C@H](F)C5)c4)CC3)cc21` [Example 27] were, in that order, 100 to 500 nM and 10 to 100 nM.
`CC(Cc1cccc(S(=O)(=O)N2CCC(Nc3ncc(C(F)(F)F)cn3)CC2)c1)CN1CCC(c2ccc3c(N4CCC(=O)NC4=O)nn(C)c3c2)CC1` (stereo not drawn) [Example 29]: the IC50 at CDK2 [1] is 1 to 100 nM. Moreover, on CDK2 [2], the DC50 lay within 1 to 10 nM.
As for `Cn1nc(N2CCC(=O)NC2=O)c2ccc(C3CCN(C[C@H]4CCCN(c5cccc(S(=O)(=O)N6CCC(Nc7ncc(OC(F)F)cn7)CC6)c5)C4)CC3)cc21` [Example 258, (R)-1-(6-(1-((1-(3-((4-((5-(difluoromethoxy)pyrimidin-2-yl)amino)piperidin-1-yl)sulfonyl)phenyl)piperidin-3-yl)methyl)piperidin-4-yl)-1-methyl-1H-indazol-3-yl)dihydropyrimidine-2,4(1H,3H)-dione], at CDK2 [1], the IC50 was in the range of 100 to 500 nM.
As for `Cn1nc(N2CCC(=O)NC2=O)c2ccc(C3CCN(C[C@@H]4CCCN4c4cccc(S(=O)(=O)N5CCC(Nc6ncc(OC(F)F)cn6)CC5)c4)CC3)cc21` [Example 259, (S)-1-(6-(1-((1-(3-((4-((5-(difluoromethoxy)pyrimidin-2-yl)amino)piperidin-1-yl)sulfonyl)phenyl)pyrrolidin-2-yl)methyl)piperidin-4-yl)-1-methyl-1H-indazol-3-yl)dihydropyrimidine-2,4(1H,3H)-dione], the IC50 on CDK2 [1] is 500 to 2500 nM.
On the same count and under the same terms, next, `Cn1nc(N2CCC(=O)NC2=O)c2ccc(C3CCN(C[C@H]4CCCCN4c4cccc(S(=O)(=O)N5CCC(Nc6ncc(OC(F)F)cn6)CC5)c4)CC3)cc21` [Example 260, (R)-1-(6-(1-((1-(3-((4-((5-(difluoromethoxy)pyrimidin-2-yl)amino)piperidin-1-yl)sulfonyl)phenyl)piperidin-2-yl)methyl)piperidin-4-yl)-1-methyl-1H-indazol-3-yl)dihydropyrimidine-2,4(1H,3H)-dione]: 100 to 500 nM.
On the same count and under the same terms, next, `Cn1nc(N2CCC(=O)NC2=O)c2ccc(C3CCN(C[C@@H]4CCCCN4c4cccc(S(=O)(=O)N5CCC(Nc6ncc(OC(F)F)cn6)CC5)c4)CC3)cc21` [Example 261, (S)-1-(6-(1-((1-(3-((4-((5-(difluoromethoxy)pyrimidin-2-yl)amino)piperidin-1-yl)sulfonyl)phenyl)piperidin-2-yl)methyl)piperidin-4-yl)-1-methyl-1H-indazol-3-yl)dihydropyrimidine-2,4(1H,3H)-dione]: 100 to 500 nM.
